Measurements published in PMC10864483, “Iron uptake pathway of Escherichia coli as an entry route for peptide nucleic acids conjugated with a siderophore mimic” (Frontiers in Microbiology, 2024).
Where a SMILES comes first, the peptide text is derived from it. [ ]: non-standard residue; d: D form. Orn(N5-OH,N5-Ac) = CC(=O)N(O)CCC[C@H](N)C(=O)O

Test: CD spectroscopy of siderophore-iron(III) complexes
Assay type: physicochemical
Conditions: for Optimal Fe^3+ complex configuration: CD, phosphate buffer pH 7.0, optical isomer Λ or Δ
Excerpt: To elucidate the configuration of the siderophore-iron(III) complexes, we used circular dichroism (CD) spectroscopy where the minimum and maximum with Cotton effect are expected in the range of 350–490 nm ([Winkelmann, 1991]; [Matsumoto et al., 2001]). For the Λ configuration, the minimum band in the CD spectrum should be present before the maximum. Since the Δ configuration is a mirror image of the Λ configuration, the maximum band appears first ([Winkelmann, 1991]). In the presence of the Fe^3+ salt, the natural siderophores and SL solution changed from colorless to yellow after several minutes. This indicates the presence of the siderophore-ferric iron complex and further confirms the metal-binding properties of these compounds ([Winkelmann, 1991]). Based on this observation, during the CD experiments, for every siderophore, we adjusted the incubation time at the optimal concentration, ranging from 40 to 90 min (see Supplementary Figure S1).
Figure 4 CD spectra of the natural (ferrichrome and feroxamine) and synthetic (SL and SC) siderophores with Fe^3+ salt solution in phosphate buffer (pH = 7.0).
CD spectra were recorded in aqueous buffer solution (100 mM phosphate buffer, pH 7.0), in the presence of 4 mM iron(III) salt solution (FeCl3 in the phosphate buffer). To obtain optimal recording conditions, siderophore concentrations were varied in the range 0.24–1.0 mM with an incubation time of 20–90 min (Supplementary Figure S1). In all CD experiments, the siderophore-Fe^3+ molar ratio of 1:1 was maintained. The spectra were collected using the Biokine MOS-450/AF-CD spectrometer equipped with the Xe lamp using a 0.1 cm CD cell. The acquisition duration time was 2 s with a resolution of 1 nm. The measurements were performed in 100 mM phosphate buffer, pH 7.0, room temperature, and wavelength range 300–500 nm. The presented CD spectra were smoothed with the Savitzky–Golay method using GraphPad and are the averages of three scans. Each CD experiment was conducted twice to confirm the repeatability of the spectra.

[1] = siderophore with Fe^3+ salt 1:1, 100 mM phosphate buffer pH 7.0, room temperature, 300-500 nm, average of three scans

Compound	Optimal Fe^3+ complex configuration	CD Wavelength Maximum [1] [nm]	CD Wavelength Minimum [1] [nm]	Ferric iron binding (CD and color change) (with Fe^3+ salt solution, phosphate buffer pH 7.0)
CC(=O)N([O-])CCC[C@@H]1NC(=O)CNC(=O)CNC(=O)CNC(=O)[C@H](CCCN([O-])C(C)=O)NC(=O)[C@H](CCCN([O-])C(C)=O)NC1=O.[Fe+3] [Ferrichrome] (cyclo(GGG[Orn(N5-OH,N5-Ac)][Orn(N5-OH,N5-Ac)][Orn(N5-OH,N5-Ac)]))	Λ	456	360	
CC(=O)N([O-])CCCCCNC(=O)CCC(=O)N([O-])CCCCCNC(=O)CCC(=O)N([O-])CCCCCN.[Fe+3] [Feroxamine, feroxamine]	Λ and Δ			
cyc(Asp-(Orn(Ac,OH))3-Gly-Lys(N3)) (head to tail) [SC, azido-Cyc(Asp-(Orn(Ac‚OH))3-GIy-Lys(N3)), cyclic hydroxamate siderophore mimic]		487		cannot bind ferric iron
